Test systems include TK-10 renal; U251 CNS; HCC-2998 colon; COLO 205 colon; HOP-62 NSCLC; EKVX NSCLC; RPMI-8226 leukemia; NCI-H460 lung; MCF7 breast; MALME-3M melanoma.
Common to all, as to test: inhibition of tumour cell growth, NCI panel, 48 h

The values below come from PubChem BioAssay (NCI).

Values joined by “and” are separate entries in the source; they are usually repeats but may differ in a detail not shown here. Equal values may be shown once.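 Interpolation was linear, between the two tested concentrations surrounding the appropriate level; five concentrations were tested over 48 hours in 96-well plates. Abbreviation: GI50, concentration required for 50% inhibition of growth. TGI: total growth inhibition.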

Turning to `NCCO/C=C/C(N)C(=O)O` (stereo unspecified), the TGI in the test on TK-10 renal, in the test with U251 CNS, in the test on HCC-2998 colon, in the test on COLO 205 colon, in the test with HOP-62 NSCLC and in the test with EKVX NSCLC was over 100 µM each time. Also, the TGI in the test with RPMI-8226 leukemia, in the test on NCI-H460 lung and in the test with MCF7 breast was over 100 µM throughout.
As for `CC1=NN(c2cccc(Cl)c2)C(=O)/C1=C\c1cn(CC(O)CN2CCCCC2)c2ccccc12` (stereo unspecified), the GI50 with TK-10 renal was 7.51 µM; in the test with U251 CNS, 3.64 µM; in the test with HCC-2998 colon, 6.12 µM; with COLO 205 colon it was 1.73 µM; in the test with HOP-62 NSCLC, 12.4 µM; in the test with EKVX NSCLC, 11.1 µM. Besides, the GI50 in the test with RPMI-8226 leukemia is 2.91 µM; in the test with NCI-H460 lung it was 2.44 µM; with MCF7 breast, 6.47 µM. Further, the TGI in the test on TK-10 renal is 21.3 µM; with U251 CNS, 14 µM; in the test with HCC-2998 colon, 19.2 µM; with COLO 205 colon, 3.26 µM; in the test on HOP-62 NSCLC it was 26.5 µM; in the test with EKVX NSCLC, 25.9 µM. Also, the TGI in the test with RPMI-8226 leukemia came to 8.73 µM; in the test with NCI-H460 lung, 6.4 µM; in the test on MCF7 breast it was 21.5 µM.
For the molecule `COc1ccc(-c2ccc(C3CC(c4ccccc4)=NN3)o2)c([N+](=O)[O-])c1` (stereo unspecified), the GI50 in the test with TK-10 renal is 22.1 µM; in the test with U251 CNS it was 57.3 µM; in the test with HCC-2998 colon, 25.5 µM; in the test with COLO 205 colon, 52.9 µM; with HOP-62 NSCLC, 52.7 µM; in the test with EKVX NSCLC, 49.2 µM. Also, the GI50 with RPMI-8226 leukemia was 31 µM; in the test on NCI-H460 lung, 36.5 µM; with MCF7 breast it was 31.8 µM. In addition, the TGI with TK-10 renal was 63.8 µM; in the test with U251 CNS, over 100 µM; with HCC-2998 colon it was 58.5 µM; with COLO 205 colon it was over 100 µM; in the test with HOP-62 NSCLC it was over 100 µM; in the test with EKVX NSCLC, over 100 µM. For the same molecule, the TGI in the test with RPMI-8226 leukemia, in the test on NCI-H460 lung and in the test on MCF7 breast was over 100 µM each time.
Turning to `O=C(Nc1ccc(Cl)cc1C(F)(F)F)C(=O)Nn1c(=S)[nH]c2ccccc2c1=O`, the TGI with TK-10 renal, with U251 CNS, with HCC-2998 colon, in the test on HOP-62 NSCLC, in the test with RPMI-8226 leukemia and in the test on NCI-H460 lung was over 100 µM each time. In the test with MCF7 breast, the TGI is over 100 µM.
Consider `COc1cc2c(cc1C)NC(=O)/C2=C/c1ccnc2ccccc12`, for which the GI50 is 35.8 µM in the test on TK-10 renal; 9.92 µM in the test on U251 CNS; 35.7 µM in the test with HCC-2998 colon; 38.9 µM in the test with COLO 205 colon; over 50 µM with HOP-62 NSCLC; 25.5 µM with EKVX NSCLC. Besides, the GI50 is 19.7 µM in the test with RPMI-8226 leukemia, 15.3 µM with NCI-H460 lung and 8.72 µM in the test with MCF7 breast. Also, the TGI with TK-10 renal was over 50 µM; in the test with U251 CNS, 35.9 µM; with HCC-2998 colon, over 50 µM; in the test with COLO 205 colon, over 50 µM; with HOP-62 NSCLC it was over 50 µM; with EKVX NSCLC, over 50 µM. In addition, the TGI in the test on RPMI-8226 leukemia, in the test with NCI-H460 lung and in the test with MCF7 breast was over 50 µM each time.
Turning to `Cc1cccc(N2C(=O)/C(=C/C(Cl)=C/c3ccc([N+](=O)[O-])cc3)SC2=S)c1C`, the GI50 was 3.17 µM in the test on TK-10 renal; 1.95 µM with U251 CNS; 1.72 µM with HCC-2998 colon; 1.81 µM in the test on COLO 205 colon; 2.69 µM with HOP-62 NSCLC; 2.73 µM with EKVX NSCLC. Besides, the GI50 with RPMI-8226 leukemia is 0.439 µM; with MCF7 breast it was 0.786 µM. For the same molecule, the TGI is over 100 µM in the test with TK-10 renal; 5.94 µM with U251 CNS; 3.54 µM in the test on HCC-2998 colon; 5.08 µM with COLO 205 colon; 9.02 µM in the test on HOP-62 NSCLC; over 100 µM in the test with EKVX NSCLC. Further, the TGI is 2.04 µM in the test with RPMI-8226 leukemia and over 100 µM in the test with MCF7 breast.
Consider `COc1cc2c(/C=C3\C(=O)Nc4ccccc43)c[nH]c2cc1C`, for which the GI50 with TK-10 renal is 1.31 µM; in the test with U251 CNS it was 0.94 µM; with HCC-2998 colon, under 0.0179 µM; in the test with COLO 205 colon it was 0.118 µM; with HOP-62 NSCLC, under 0.01 µM; with EKVX NSCLC, 0.0559 µM. The GI50 is 0.0393 µM in the test with RPMI-8226 leukemia and 0.0761 µM in the test on NCI-H460 lung. The TGI with TK-10 renal stood at 9.95 µM; with U251 CNS, 4.82 µM; with HCC-2998 colon, 0.167 µM; in the test on COLO 205 colon, 4.39 µM; with HOP-62 NSCLC it was 10.7 µM; with EKVX NSCLC, 26.5 µM. Moreover, the values for the TGI in the test with RPMI-8226 leukemia, with NCI-H460 lung and in the test on MCF7 breast were 16.2 µM, over 100 µM and over 82.1 µM, respectively.
On to `c1ccc2c(c1)[nH]c1c2nc2ccccn21`, for which the TGI with TK-10 renal, in the test on U251 CNS, with HCC-2998 colon, in the test on COLO 205 colon, in the test on MALME-3M melanoma and in the test on HOP-62 NSCLC was over 100 µM in each case. Besides, the TGI with EKVX NSCLC, in the test with RPMI-8226 leukemia and with NCI-H460 lung was over 100 µM in each case. In addition, the GI50 in the test on MALME-3M melanoma is 27.8 µM and > 100 µM.
`COC(=O)C1C=CCC2CCCCC21N1CCCC1` (stereo unspecified): the TGI in the test on TK-10 renal, in the test on U251 CNS, with HCC-2998 colon, in the test on COLO 205 colon, with MALME-3M melanoma and in the test with HOP-62 NSCLC was over 100 µM each time. Moreover, the TGI in the test on EKVX NSCLC, in the test with RPMI-8226 leukemia and in the test on NCI-H460 lung was over 100 µM throughout.
Turning to `CN(C)CCC(=O)Nc1ccc(-n2cc(-c3cccc(NC(=S)Nc4cccc(-c5cn(-c6ccc(NC(=O)CCN(C)C)cc6)nn5)c4)c3)nn2)cc1`, the GI50 is 83.7 µM in the test with TK-10 renal; 21.4 µM with U251 CNS; over 100 µM in the test with HCC-2998 colon; 14.2 µM in the test with COLO 205 colon; 33.1 µM in the test with HOP-62 NSCLC; 37.2 µM in the test on EKVX NSCLC. Besides, the GI50 in the test on RPMI-8226 leukemia was 38.6 µM; with NCI-H460 lung, 26.6 µM; with MCF7 breast it was 3.25 µM. In addition, the TGI was over 100 µM in the test on TK-10 renal; 80.8 µM in the test with U251 CNS; over 100 µM in the test with HCC-2998 colon; 45.7 µM in the test on COLO 205 colon; over 100 µM in the test with HOP-62 NSCLC; over 100 µM in the test on EKVX NSCLC. The TGI was over 100 µM in the test on RPMI-8226 leukemia, 96.6 µM in the test with NCI-H460 lung and 40.3 µM in the test with MCF7 breast.
Consider `O=C1/C(=C/c2ccccc2)Oc2cc(O)ccc21`, for which the TGI with TK-10 renal, with U251 CNS, with HCC-2998 colon, in the test on COLO 205 colon, with HOP-62 NSCLC and in the test with EKVX NSCLC was over 100 µM throughout. Besides, the TGI with RPMI-8226 leukemia, with NCI-H460 lung and in the test on MCF7 breast was over 100 µM in each case.
As to `Cc1cc(Cl)ccc1NC(=O)CCCC(=O)C1C/C(=N/O)CC/C1=N\O` (stereo unspecified), the TGI with TK-10 renal, with U251 CNS, in the test with HCC-2998 colon, in the test on COLO 205 colon, with MALME-3M melanoma and in the test on HOP-62 NSCLC was over 100 µM throughout. The TGI in the test with EKVX NSCLC, in the test with RPMI-8226 leukemia and with NCI-H460 lung was over 100 µM throughout.
In the case of `CC1CCC2C(C)C(=O)OC2C2(C)C(=O)C=CC12` (stereo unspecified), the TGI in the test on TK-10 renal, in the test on U251 CNS, in the test with HCC-2998 colon, with COLO 205 colon, with HOP-62 NSCLC and in the test on EKVX NSCLC was over 10 µM in each case. For the same molecule, the TGI with RPMI-8226 leukemia, in the test with NCI-H460 lung and in the test on MCF7 breast was over 10 µM each time.
As for `Cn1c(=O)oc2cc(C3CCC(=O)N3Cc3csc(-c4ccccc4)n3)ccc21` (stereo unspecified), the TGI in the test on TK-10 renal, in the test with U251 CNS, in the test with HCC-2998 colon, in the test on COLO 205 colon, with MALME-3M melanoma and in the test with HOP-62 NSCLC was over 100 µM in each case. Also, the TGI in the test with EKVX NSCLC, with RPMI-8226 leukemia and with NCI-H460 lung was over 100 µM in each case.
With `Cc1cccc(C)c1NC(=O)C(=O)Cc1nc2ccccc2s1`, the TGI in the test with TK-10 renal, in the test on U251 CNS, in the test with HCC-2998 colon, in the test on COLO 205 colon, with MALME-3M melanoma and in the test with HOP-62 NSCLC was over 100 µM in each case. The TGI in the test with EKVX NSCLC, in the test on RPMI-8226 leukemia and in the test with NCI-H460 lung was over 100 µM each time.
Take `O=C(Nc1sc2c(c1C(=O)O)CCCC2)c1ccco1`: the GI50 was over 50 µM in the test on TK-10 renal; 16.4 µM in the test on U251 CNS; 44.2 µM in the test on COLO 205 colon; over 50 µM in the test with HOP-62 NSCLC; 36.3 µM in the test on EKVX NSCLC; over 50 µM with RPMI-8226 leukemia. The GI50 was 23.5 µM in the test on NCI-H460 lung and 26.5 µM with MCF7 breast. Moreover, the TGI in the test on TK-10 renal, in the test on U251 CNS, with COLO 205 colon, with HOP-62 NSCLC, with EKVX NSCLC and in the test on RPMI-8226 leukemia was over 50 µM each time. Further, the TGI with NCI-H460 lung and in the test on MCF7 breast was over 50 µM in each case.
